In publication PMC5608556, “Photo-affinity labelling and biochemical analyses identify the target of trypanocidal simplified natural product analogues” (PLoS Neglected Tropical Diseases, 2017):

Tests used:
[1] = biological target: T1, FoF1-ATP synthase F1 α-subunit (GFP-PTP tagged) (Trypanosoma brucei brucei, UniProt Q9GS23); test: In vivo photo-affinity labelling of GFP-PTP-tagged F1 α-subunit, Cy5.5 detection; format: binding; conditions: 50 μM, in vivo pulse-chase, UV 365 nm
T1 construct: expressed in transfected cells; host or cells: procyclic-form T. brucei strain 29-13, stably transfected with MfeI-linearised pC-F1α-GFP-PTP (recombination into the endogenous gene)
T1 sequence (Q9GS23 160-584): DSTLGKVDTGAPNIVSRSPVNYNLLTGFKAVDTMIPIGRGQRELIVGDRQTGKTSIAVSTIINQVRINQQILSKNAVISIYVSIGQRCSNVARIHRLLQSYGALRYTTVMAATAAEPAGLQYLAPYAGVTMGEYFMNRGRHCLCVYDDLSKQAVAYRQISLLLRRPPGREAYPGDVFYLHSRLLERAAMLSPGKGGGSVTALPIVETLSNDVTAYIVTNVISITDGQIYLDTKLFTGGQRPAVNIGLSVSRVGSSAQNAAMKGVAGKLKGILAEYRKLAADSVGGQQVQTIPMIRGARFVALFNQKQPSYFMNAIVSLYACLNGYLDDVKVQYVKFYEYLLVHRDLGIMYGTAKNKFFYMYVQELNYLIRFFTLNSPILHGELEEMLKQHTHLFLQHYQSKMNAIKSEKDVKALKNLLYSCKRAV
Description: (§1) Fig 7 B-THP-Ts bind to C-terminal GFP-PTP tagged F1 α- and β- subunits. (A) Stably transfected PF T. brucei cells endogenously-expressing F1 α-GFP-PTP or F1 β-GFP-PTP were loaded with MitoTracker Red CMXros (red) and DAPI (blue) and imaged microscopically to determine localisation of GFP-PTP-tagged protein. […] (B) Following in vivo photo-affinity labelling with 50 μM compound 3 or compound 1 (negative control), GFP-PTP-tagged F1 α- and β-subunits were affinity purified and Cy5.5 clicked on. Proteins were separated by SDS-PAGE and a western blot was performed with mouse anti-GFP / anti-mouse-DyLight 800. […]
(§2) Pulse-chase in vivo photo-affinity labelling with bi-functional compound 3 (and lead compound 1 as negative control) was performed on cells from both cell lines expressing GFP-PTP-tagged F1 α- or β-subunits. Tagged subunits were immobilised on IgG-sepharose beads, purified, and Cy5.5 fluorescent reporter clicked on, and proteins were detected by western blotting (Fig 7B). […] In trypanosomatids (but not in other organisms) the native α-subunit is expressed as a 63 KDa protein which is then cleaved by an unknown protease to 20 KDa N-terminal and 43 KDa C-terminal domains, both of which remain associated with the FoF1-ATP synthase complex. […]

[2] = biological target: T2, FoF1-ATP synthase F1 β-subunit (GFP-PTP tagged) (Trypanosoma brucei brucei, UniProt Q9GPE9); test: In vivo photo-affinity labelling of GFP-PTP-tagged F1 β-subunit, Cy5.5 detection; format: binding; conditions: 50 μM, in vivo pulse-chase, UV 365 nm
T2 construct: The endogenous expression produces tagged protein at physiological levels, allowing it to be trafficked and form complexes in the same way as untagged endogenously expressed protein; expressed in transfected cells; host or cells: procyclic-form T. brucei strain 29-13, stably transfected with BsmI-linearised pC-F1β-GFP-PTP (recombination into the endogenous gene)
T2 sequence (Q9GPE9 22-519): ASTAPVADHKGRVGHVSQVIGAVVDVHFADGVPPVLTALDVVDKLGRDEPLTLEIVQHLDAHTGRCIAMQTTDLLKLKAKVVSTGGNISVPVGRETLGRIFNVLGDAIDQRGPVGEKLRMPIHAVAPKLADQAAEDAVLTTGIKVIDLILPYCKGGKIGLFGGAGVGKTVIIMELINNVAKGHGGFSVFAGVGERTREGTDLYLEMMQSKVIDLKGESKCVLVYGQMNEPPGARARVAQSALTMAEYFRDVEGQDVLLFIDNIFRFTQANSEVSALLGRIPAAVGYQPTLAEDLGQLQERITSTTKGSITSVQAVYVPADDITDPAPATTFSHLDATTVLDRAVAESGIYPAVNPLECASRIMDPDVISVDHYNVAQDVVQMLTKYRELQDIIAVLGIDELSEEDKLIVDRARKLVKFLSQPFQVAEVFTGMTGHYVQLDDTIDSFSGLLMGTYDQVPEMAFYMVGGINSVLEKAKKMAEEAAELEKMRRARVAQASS
Description: as §1, §2

Structure (SMILES): C#CCNC(=O)CCC[C@H]1CC2(C[C@@H](Cn3cc([C@@H]4CCC[C@H](CCCCOCc5ccccc5)O4)nn3)O1)N=N2 [Compound 3]
- UV-conjugation (Cy5.5 labelling at 700 nm) to F1 α-GFP-PTP [1]: can UV-conjugate
- UV-conjugation (Cy5.5 labelling at 700 nm) to F1 β-GFP-PTP [2]: can UV-conjugate
